Columns and labels:
[1] = test system: peripheral blood lymphocytes; assay: In vivo: Blood Lymphocyte Depletion; settings: rats, p.o.
Protocol: B. In vivo: Blood Lymphocyte Depletion
A compound of formula I or the vehicle is administered orally by gavage to rats. Tail blood for hematological monitoring is obtained on day −1 to give the baseline individual values, and at 2, 6, 24, 48 and 72 hours after application. In this assay, the compounds of formula I deplete peripheral blood lymphocytes when administered at a dose of 0.03 to 3 mg/kg. For example, following results are obtained: depletion of peripheral blood lymphocytes by more than 50%.

[2] = biological target: T1, human S1P receptor EDG-6 (S1P4) (Homo sapiens, UniProt O95977); assay: S1P receptor profiling, GTP[γ-35S] binding SPA, S1P4; type: biochemical; settings: for S1P4 mode of action: Agon = agonist; for EC50: GTP[γ-35S] binding to membranes of transfected CHO or RH7777 cells
T1 construct: expressed in transfected cells
T1 sequence (O95977 1-384): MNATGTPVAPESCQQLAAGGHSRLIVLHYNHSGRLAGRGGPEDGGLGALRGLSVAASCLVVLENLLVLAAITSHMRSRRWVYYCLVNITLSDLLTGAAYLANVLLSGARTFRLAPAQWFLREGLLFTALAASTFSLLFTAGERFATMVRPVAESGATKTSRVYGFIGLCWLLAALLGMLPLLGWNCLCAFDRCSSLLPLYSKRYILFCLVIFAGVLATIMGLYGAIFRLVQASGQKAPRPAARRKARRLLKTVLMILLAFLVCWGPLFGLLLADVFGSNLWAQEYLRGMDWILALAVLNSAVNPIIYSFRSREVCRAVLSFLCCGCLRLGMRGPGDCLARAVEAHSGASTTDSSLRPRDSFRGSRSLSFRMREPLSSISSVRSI
Protocol: (§1) Sphingosine-1-phosphate (S1P) Receptor Profiling
(§2) Agonist activities of compounds are tested on the human S1P receptors EDG-1 (S1P1), EDG-3 (S1P3), EDG-5 (S1P2), EDG-6 (S1P4) and EDG-8 (S1P5). […] The assay technology used is SPA (scintillation proximity based assay). Briefly, DMSO dissolved compounds are serially diluted and added to SPA-bead (Amersham-Pharmacia) immobilised S1P receptor expressing membrane protein (10-20 μg/well) in the presence of 50 mM Hepes, 100 mM NaCl, 10 mM MgCl2, 10 μM GDP, 0.1% fat free BSA and 0.2 nM GTP [γ-^35S] (1200 Ci/mmol). After incubation in 96 well microtiterplates at RT for 120 min, unbound GTP [γ-^35S] is separated by a centrifugation step. Luminescence of SPA beads triggered by membrane bound GTP [γ-^35S] is quantified with a TOPcount plate reader (Packard). EC50s are calculated using standard curve fitting software. In this assay, the compounds of formula I have a binding affinity to S1P1 receptor <50 nM.

[3] = biological target: T2, human S1P receptor EDG-3 (S1P3) (Homo sapiens, UniProt Q99500); assay: S1P receptor profiling, GTP[γ-35S] binding SPA, S1P3; type: biochemical; settings: for S1P3 mode of action: Agon = agonist; for EC50: GTP[γ-35S] binding to membranes of transfected CHO or RH7777 cells
T2 construct: expressed in transfected cells
T2 sequence (Q99500 whole entry): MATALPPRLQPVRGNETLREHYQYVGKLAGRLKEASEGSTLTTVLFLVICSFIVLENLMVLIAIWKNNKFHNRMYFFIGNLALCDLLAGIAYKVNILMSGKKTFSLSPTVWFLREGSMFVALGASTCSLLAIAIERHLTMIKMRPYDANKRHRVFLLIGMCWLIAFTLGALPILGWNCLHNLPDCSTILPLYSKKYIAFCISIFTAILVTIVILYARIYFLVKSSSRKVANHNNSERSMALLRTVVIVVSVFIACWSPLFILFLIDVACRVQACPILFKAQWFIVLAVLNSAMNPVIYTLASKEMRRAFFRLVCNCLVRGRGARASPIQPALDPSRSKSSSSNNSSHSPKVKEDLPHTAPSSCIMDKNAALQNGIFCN
Protocol: as §1, §2

[4] = biological target: T3, human S1P receptor EDG-8 (S1P5) (Homo sapiens, UniProt Q9H228); assay: S1P receptor profiling, GTP[γ-35S] binding SPA, S1P5; type: biochemical; settings: for S1P5 mode of action: Agon = agonist; for EC50: GTP[γ-35S] binding to membranes of transfected CHO or RH7777 cells
T3 construct: expressed in transfected cells
T3 sequence (Q9H228 whole entry): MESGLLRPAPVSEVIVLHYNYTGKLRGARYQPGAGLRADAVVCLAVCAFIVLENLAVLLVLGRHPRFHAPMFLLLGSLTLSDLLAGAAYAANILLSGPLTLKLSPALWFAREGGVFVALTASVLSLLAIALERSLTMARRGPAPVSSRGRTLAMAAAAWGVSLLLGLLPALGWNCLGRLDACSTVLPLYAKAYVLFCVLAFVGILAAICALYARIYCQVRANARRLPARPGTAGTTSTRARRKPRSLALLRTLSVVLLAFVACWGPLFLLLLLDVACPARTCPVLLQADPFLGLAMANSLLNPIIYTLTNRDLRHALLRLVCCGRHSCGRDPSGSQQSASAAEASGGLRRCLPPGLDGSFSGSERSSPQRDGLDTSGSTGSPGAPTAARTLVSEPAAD
Protocol: as §1, §2

[5] = biological target: T4, human S1P receptor EDG-1 (S1P1) (Homo sapiens, UniProt P21453); assay: S1P receptor profiling, GTP[γ-35S] binding SPA, S1P1; type: biochemical; settings: for S1P1 mode of action: Agon = agonist; for EC50: GTP[γ-35S] binding to membranes of transfected CHO or RH7777 cells
T4 construct: expressed in transfected cells
T4 sequence (P21453 whole entry): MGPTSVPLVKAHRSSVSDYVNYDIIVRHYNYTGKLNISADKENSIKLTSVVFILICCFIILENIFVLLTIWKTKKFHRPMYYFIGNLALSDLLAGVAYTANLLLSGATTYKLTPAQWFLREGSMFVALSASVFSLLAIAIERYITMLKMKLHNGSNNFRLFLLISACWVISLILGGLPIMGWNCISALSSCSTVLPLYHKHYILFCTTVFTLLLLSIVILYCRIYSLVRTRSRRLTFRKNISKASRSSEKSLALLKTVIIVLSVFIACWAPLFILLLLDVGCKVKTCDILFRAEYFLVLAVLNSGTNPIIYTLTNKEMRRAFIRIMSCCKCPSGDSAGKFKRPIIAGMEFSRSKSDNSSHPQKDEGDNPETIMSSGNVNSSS
Protocol: as §1, §2

SMILES	S1P4 mode of action [2]	EC50 [2]	melting point	S1P3 mode of action [3]	EC50 [3]	S1P5 mode of action [4]	EC50 [4]	S1P1 mode of action [5]	EC50 [5]	dose giving depletion of peripheral blood lymphocytes by more than 50% ([1]; after 6 h)	dose giving depletion of peripheral blood lymphocytes by more than 50% ([1]; after 24 h)	dose giving depletion of peripheral blood lymphocytes by more than 50% ([1]; after 48 h)
CCCCCOc1ccc2cc(CC[C@@](C)(N)CO)ccc2c1 [Example 1, (R)-2-amino-2-methyl-4-(6-pentyloxynaphthalen-2-yl)butan-1-ol]	–	–	–	–	–	–	–	–	–	0.02 mg/kg p.o. after 6 h,	0.3 mg/kg p.o. after 24 h,	>1 mg/kg after 48 h
C[C@](N)(CO)CCc1ccc2oc(-c3ccc4c(c3)OCO4)nc2c1 [Example 25, (R)-2-Amino-4-(2-benzo[1,3]dioxol-5-yl-benzoxazol-5-yl)-2-methyl-butan-1-ol]	–	–	–	–	–	–	–	–	–	0.06 mg/kg p.o. after 6 h	–	0.3 mg/kg after 48 h
CCOc1cccc(-c2nc3cc(CC[C@@](C)(N)CO)ccc3o2)c1 [Example 26, (R)-2-Amino-4-[2-(3-ethoxy-phenyl)-benzoxazol-5-yl]-2-methyl-butan-1-ol]	–	–	–	–	–	–	–	–	–	0.03 mg/kg p.o. after 6 h	–	0.2 mg/kg after 48 h
C[C@](N)(CO)CCc1ccc2oc(-c3ccccc3)cc2c1 [Example 37, (R)-2-Amino-2-methyl-4-(2-phenyl-benzofuran-5-yl)-butan-1-ol]	–	–	–	–	–	–	–	–	–	0.40 mg/kg p.o. after 6 h	–	–

The next lines start with results.

S1P4 mode of action [2]	EC50 [2]	melting point	S1P3 mode of action [3]	EC50 [3]	S1P5 mode of action [4]	EC50 [4]	S1P1 mode of action [5]	EC50 [5]	SMILES	dose giving depletion of peripheral blood lymphocytes by more than 50% ([1]; after 6 h)	dose giving depletion of peripheral blood lymphocytes by more than 50% ([1]; after 24 h)	dose giving depletion of peripheral blood lymphocytes by more than 50% ([1]; after 48 h)
Agon	0.4 nM	266 to 267 °C	Agon	8.4 nM	Agon	0.1 nM	Agon	0.3 nM	CCCCCOc1ccc2cc(CC[C@@](C)(N)COP(=O)(O)O)ccc2c1 [Example 12, Phosphoric acid mono-[(R)-2-amino-2-methyl-4-(6-pentyloxynaphthalen-2-yl)but-1-yl]ester]	–	–	–
Agon	1.2 nM	–	Agon	5.7 nM	Agon	0.4 nM	Agon	0.06 nM	C[C@@](N)(CCc1ccc2cc(OCCCC(F)(F)C(F)(F)F)ccc2c1)COP(=O)(O)O [Example 13]	–	–	–
Agon	1 nM	–	inverse	47 nM	Agon	0.8 nM	Agon	2.8 nM	CCCOc1ccc2cc(CC[C@@](C)(N)COP(=O)(O)O)ccc2c1 [Example 14]	–	–	–
Agon	9 nM	–	Agon	> 1000 nM	Agon	5 nM	Agon	17 nM	CCCCCc1nc2cc(CC[C@@](C)(N)COP(=O)(O)O)ccc2o1 [Example 42, Phosphoric acid mono-[(R)-2-amino-2-methyl-4-(2-pentyl-benzoxazol-5-yl)-butyl]ester]	–	–	–
Agon	0.7 nM	–	Agon	1180 nM	Agon	0.4 nM	Agon	1.6 nM	C[C@@](N)(CCc1ccc2oc(-c3ccccc3)cc2c1)COP(=O)(O)O [Example 49, Phosphoric acid mono-[(R)-2-amino-2-methyl-4-(2-phenyl-benzofuran-5-yl)-butyl]ester]	–	–	–

— patent US7825260B2, “Aminopropanol derivatives as sphingosine-1-phosphate receptor modulators” (Novartis AG, priority 2003, dated 2010)
